Measured values reported in patent US9492447B2, “Cannabinoid receptor modulators” (Arena Pharmaceuticals, Inc., priority 2011, dated 2016).
Several values for one entry are separate records, joined by “and”; a condition that tells them apart may be missing. Equal values may be shown once.

What was measured:
[1] = system: rats following ligation of spinal nerves; details: local (subcutaneous) or systemic administration; cited from earlier work
[2] = system: carrageenan, capsaicin, and formalin models of inflammatory pain in rodents; details: systemic delivery; cited from earlier work
[3] = system: MIA model of osteoarthritis in rats; assay: Monosodium iodoacetate (MIA) model of osteoarthritis pain; type: in vivo, rat; details: 3, 10 and 30 mg/kg orally; one hour after dosing; FIG. 2
Description: Injection of monosodium iodoacetate (MIA) into a joint (Kalbhen, 1987) inhibits the activity of glyceraldehyde-3-phosphate dehydrogenase in chondrocytes, resulting in disruption of glycolysis and eventually in cell death. The progressive loss of chondrocytes results in histological and morphological changes of the articular cartilage, closely resembling those seen in osteoarthritis patients.
The osteoarthritis was induced in 200 g male Sprague Dawley rats. […]
Typically during disease progression, there was an inflammation period of 0-7 days post-intra-articular injection followed by progressive degeneration of the cartilage and subchondral bone from days 14-55. […] Tactile allodynia was measured via von Frey assay, hind limb paw weight distribution was monitored using an incapacitence tester (Columbus Instruments, Columbus, Ohio, USA) and hind limb grip strength was measured using a grip strength meter (Columbus Instruments, Columbus, Ohio, USA). […] Hind paw weight distribution was determined by placing rats in a chamber so that each hind paw rests on a separate force plate of the incapacitence tester. The force exerted by each hind limb (measured in grams) is averaged over a 3 second period. Three measurements were taken for each rat, and the change in hind paw weight distribution calculated. […]

[4] = system: FCA-induced hyperalgesia in rats; assay: FCA-induced hyperalgesia model of inflammatory pain; type: in vivo, rat; details: 0.1, 1, 3, 10 and 30 mg/kg orally; 1 h post dosing; Analgesy-Meter; FIG. 1
Procedure: Male Sprague Dawley rats from Harlan (200-225 g when received) were used. Upon arrival, rats were housed 4 per cage in shoe-box polycarbonate cages with wire tops, wood chip bedding and suspended food and water bottles. Animals were acclimated for 5-7 days prior to being injected with Freund's complete adjuvant (FCA) (Sigma; catalog #5881).
2 days (48 h) before testing compounds, baseline readings of all rats were taken right before FCA injection. Rats were then injected with 50 μL FCA containing 1 mg/mL Mtb (Mycobacterium tuberculosis) in right hind footpad under inhalation anesthesia (isoflurane). 48 hours after FCA injection, readings were taken as pre-dosing baseline and then rats were dosed orally with 0.5 mL of vehicle or compound (0.5 mL per 250 g rat). Readings were taken again at 1 h post dosing. All readings were taken with an Analgesy-Meter (Ugo Basile) which measures mechanical hyperalgesia via paw pressure.
FCA-induced hyperalgesia was tested with an Analgesy-Meter. Briefly, the Analgesy Meter applied an increasing pressure to the right hind paw. The paw withdrawal threshold was the pressure leading to withdrawal.
Meanwhile a group of rats were dosed orally with 50 mg/kg of Diclofenac as a positive control. Readings were taken again at 1 h post dosing. Dosing volume was 500 μL per 250 g rat.

[5] = system: paclitaxel-induced allodynia in Sprague Dawley rats; assay: Paclitaxel-induced allodynia; type: in vivo, rat; details: 10 mg/kg orally
Procedure: Therapy however is often associated with the unwanted side affects of painful peripheral neuropathy.
Male Sprague Dawley rats [200-250 g](Harlan Laboratories Inc., Livermore, Calif.) were housed three per cage and maintained in a humidity-controlled (40-60%) and temperature-controlled (68-72° F.) facility on a 12 h: 12 h light/dark cycle (lights on at 6:30 am) with free access to food (Harlan Teklad, Orange, Calif., Rodent Diet 8604) and water. Rats were allowed one week of habituation to the animal facility before starting treatment.
Rats were treated intraperitoneally, with 2 mg/kg of paclitaxel (Sigma Aldrich, Saint Louis, Mo.) in 10% Cremophor vehicle (500 μL) on days 0, 2, 4, and 6.
Tactile allodynia was tested using von Frey filaments. Briefly, the von Frey assay was performed using the standardized up down method with von Frey filaments, that determine the tactile sensitivity of the paw. By applying the increasingly or decreasingly thicker filaments to the paw in a logarithmic scale of actual force, a linear scale of perceived intensity is determined.
Eight days after the start of paclitaxel dosing, a baseline measurement (von Frey assay) was performed prior to dosing of compounds. […] As a positive control, rats were dosed intraperitoneally with 100 mg/kg gabapentin in water. The dosing volume for oral and peritoneal treatment was 500 μL. […]

[6] = system: Monosodium iodoacetate-induced osteoarthritis rats; assay: Combination of Compound 699 and morphine in MIA-induced osteoarthritis pain, Von Frey test; type: in vivo, rat; details: Von Frey one hour post-dosing
[7] = system: STZ-induced PDPN model, diabetic and allodynic rats; assay: Streptozotocin-induced painful diabetic peripheral neuropathy (PDPN) model; type: in vivo, rat; details: 10 mg/kg orally in 0.5% methylcellulose; 1, 4 and 6 hours post-dosing; FIG. 13, 14
Procedure: Male Sprague-Dawley rats were injected intraperitoneally with 50 mg/kg of streptozotocin (STZ) in sodium citrate buffer. 10% sucrose water was provided ad libitum for the first 48 hours post-STZ followed by regular drinking water. Rats were monitored once weekly for blood glucose levels and body weights. Development of tactile allodynia over time was analyzed using Von Frey filaments and a 50% withdrawal threshold was determined using Dixon's up-down procedure. […] Tactile allodynia was evaluated at 1, 4 and 6 hours post-dosing.

[8] = system: capsaicin-induced hyperalgesia and allodynia; details: topical administration, humans; cited from earlier work
[9] = system: CB1; details: exogenous administration of a CB1 agonist; cited from earlier work
CB1, sequence (P47746 whole entry): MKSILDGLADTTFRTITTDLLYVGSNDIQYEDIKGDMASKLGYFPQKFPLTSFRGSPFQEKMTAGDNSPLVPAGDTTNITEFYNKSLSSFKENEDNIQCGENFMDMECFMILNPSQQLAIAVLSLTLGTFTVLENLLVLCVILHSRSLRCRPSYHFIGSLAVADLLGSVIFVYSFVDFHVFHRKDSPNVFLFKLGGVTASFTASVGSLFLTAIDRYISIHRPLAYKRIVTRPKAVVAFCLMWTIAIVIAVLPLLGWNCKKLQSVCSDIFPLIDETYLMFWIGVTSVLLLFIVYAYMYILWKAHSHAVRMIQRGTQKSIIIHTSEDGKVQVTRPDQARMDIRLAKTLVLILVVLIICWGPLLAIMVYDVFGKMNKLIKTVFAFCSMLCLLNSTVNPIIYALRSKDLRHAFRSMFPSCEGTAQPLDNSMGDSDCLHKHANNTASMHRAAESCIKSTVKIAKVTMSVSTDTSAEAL

## CN1CCCCC1Cn1cc(C(=O)c2cc([N+](=O)[O-])ccc2I)c2ccccc21 (stereo not drawn) [AM1241]
[1]
  effect on tactile and thermal hypersensitivity: reverses tactile and thermal hypersensitivity
[2]
  effect on induced hyperalgesia: suppresses hyperalgesia

## CC(C)(CO)NC(=O)c1nn(-c2ccc(F)cc2F)c2c1C[C@H]1C[C@@H]21 [Compound 493, (1aR,5aR)-2-(2,4-Difluoro-phenyl)-1a,2,5,5a-tetrahydro-1H-2,3-diaza-cyclopropa[a]pentalene-4-carboxylic Acid (2-Hydroxy-1,1-dimethyl-ethyl)-amide]
[3]
  Increase in paw withdrawal threshold (PWT) in comparison with vehicle: exhibiting therapeutic efficacy
[4]
  increase in paw withdrawal threshold (PWT) in comparison with the vehicle: exhibited therapeutic efficacy
[5]; time course
  time of maximum efficacy post-dosing: 1 h
[5]; von Frey 30, 60 and 180 minutes after dosing, FIG. 3
  increase in paw withdrawal threshold (PWT) in comparison with vehicle and gabapentin: exhibiting therapeutic efficacy

## CC(C)(C)[C@@H](CO)NC(=O)c1nn(-c2c[n+]([O-])ccn2)c2c1C[C@@H]1C[C@H]21 [Compound 699, (1aS,5aS)-2-(4-Oxy-pyrazin-2-yl)-1a,2,5,5a-tetrahydro-1H-2,3-diaza-cyclopropa[a]pentalene-4-carboxylic Acid ((S)-1-Hydroxymethyl-2,2-dimethyl-propyl)-amide]
[6]; 1 mpk Compound 699 orally
  paw withdrawal threshold (PWT), individual values: 6.66 and 5.56 and 11.69 and 5.54 and 7.80 and 3.58
[6]; 10 mpk Compound 699 orally (positive control)
  paw withdrawal threshold (PWT), individual values: 6.58 g and 7.8 g
[6]; 10 mpk Compound 699 orally (positive control), in g
  paw withdrawal threshold (PWT), individual values: 15.00 (3×) and 11.69
[7]
  analgesic efficacy, tactile allodynia (50% withdrawal threshold): robust and sustained analgesic efficacy over 6 hours

## CCCCCCC(C)(C)c1cc(O)c2c(c1)OC(C)(C)[C@@H]1CC=C(CO)C[C@@H]21 [HU-210]
[8]
  effect on capsaicin-induced hyperalgesia and allodynia: attenuates capsaicin-induced hyperalgesia and allodynia

## CCCCC/C=C\C/C=C\C/C=C\C/C=C\CCCC(=O)NCCCl [arachidonyl-2-chloroethylamide]
[9]
  effect on pain: reduces pain
